Results from patent publication US20250262211A1, “COMBINATION OF RAS INHIBITORS AND […] INHIBITORS FOR THE TREATMENT OF CANCERS” (INSTITUT NATIONAL DE LA SANTÉ ET DE LA RECHERCHE MÉDICALE, priority 2022, published 2025).

Columns and labels:
Type in all cases: cell-based
[1] = test system: H23 KRAS (G12C)-mutant non-small cell lung cancer (NSCLC) cell line; assay: FUCCI-transduced H23 cells, response/relapse monitored by Incucyte during 50 days; conditions: H23, 50 days
[2] = test system: Calu-1 KRAS (G12C)-mutant non-small cell lung cancer (NSCLC) cell line; assay: FUCCI-transduced Calu-1 cells, response/relapse monitored by Incucyte during 50 days; conditions: Calu-1, 50 days
[3] = test system: H23 cells (KRas G12C); assay: Cell confluency of H23 cells under treatment, Incucyte Live-Cell Analysis / amidoblack staining; conditions: drug used alone, 1 μM, 35 days
Procedure: FIG. 1. […] A. Cell confluency was measured twice a week over 35 days of indicated treatments. B. Amidoblack staining of a 6-well plate after 35 of indicated treatments.
Medium was changed twice a week and cell confluency was monitored by Incucyte® Live-Cell Analysis System.

[4] = 1 μM tipifarnib added to 1 μM sotorasib

Compound | cell cycle dynamics [1, 4] | emergence of resistant proliferative clones (total cell number) [1, 4] | cell cycle dynamics [2, 4] | emergence of resistant proliferative clones (total cell number) [2, 4] | anti-tumor effect (cell confluency) [3] | emergence of resistant proliferative clones (total cell number) ([1]; 1 μM sotorasib alone) | emergence of resistant proliferative clones (total cell number) ([2]; 1 μM sotorasib alone)
Cn1cncc1[C@@](N)(c1ccc(Cl)cc1)c1ccc2c(c1)c(-c1cccc(Cl)c1)cc(=O)n2C [tipifarnib, (R)-6-[amino (4-chlorophenyl) (1-methyl-1H-imidazol-5-yl)methyl]-4-(3-chlorophenyl)-1-methyl-2 (1H)-quinolinone] | strongly impacting cell cycle dynamics, resulting in cell death | prevented the emergence of RPC | strongly impacting cell cycle dynamics, resulting in cell death | prevented the emergence of RPC | did not show a significant anti-tumor effect |  | 
C=CC(=O)N1CCN(c2nc(=O)n(-c3c(C)ccnc3C(C)C)c3nc(-c4c(O)cccc4F)c(F)cc23)[C@@H](C)C1 [sotorasib, 6-fluoro-7-(2-fluoro-6-hydroxyphenyl)-1-[4-methyl-2-(propan-2-yl)pyridin-3-yl]-4-[(2S)-2-methyl-4-(prop-2-enoyl)piperazin-1-yl]-1H,2H-pyrido[2,3-d]pyrimidin-2-one] |  |  |  |  | did not show a significant anti-tumor effect | developed resistant proliferative clones (RPC) | developed resistant proliferative clones (RPC)
